Activity calls are given as the source filed them. The rule behind the calls is not given here.

A short description of data set [1]: Drug level in C57BL/6 mouse blood at 260.935 mg/kg, ip measured after 1 hr by LC-MS/MS analysis. It is filed as ADME, organism-based. More on the design: dose 260.935 mg/kg, route intraperitoneal. Conditions: 260.94 mg/kg, read-out: Drug uptake.
Data set [2] can be described thus: Drug level in C57BL/6 mouse brain at 260.935 mg/kg, ip measured after 1 hr by LC-MS/MS analysis. It is filed as ADME, organism-based. Further details: dose 260.935 mg/kg, route intraperitoneal. The conditions noted are these: 260.94 mg/kg, read-out: Drug uptake.
Data set [3] can be described thus: Ratio of drug level in brain to blood in C57BL/6 mouse at 260.935 mg/kg, ip measured after 1 hr by LC-MS/MS analysis. The format is ADME, organism-based. Further details: dose 260.935 mg/kg, route intraperitoneal. The conditions noted are these: 260.94 mg/kg.
Data set [4] deals with Blood. Nature of the data set: Drug level in C57BL/6 mouse blood assessed as acetylsalicylic acid at 260.935 mg/kg, ip measured after 1 hr by LC-MS/MS analysis. It is filed as ADME, organism-based. More on the design: dose 260.935 mg/kg, route intraperitoneal. Conditions: in vivo, 260.94 mg/kg.
The subject of data set [5] is Brain. The data set is described as follows: Drug level in C57BL/6 mouse brain assessed as acetylsalicylic acid at 260.935 mg/kg, ip measured after 1 hr by LC-MS/MS analysis. Conditions: in vivo, 260.94 mg/kg. It is filed as ADME, organism-based. Further details: dose 260.935 mg/kg, route intraperitoneal.
A short description of data set [6]: Ratio of drug level in brain to blood assessed as acetylsalicylic acid in C57BL/6 mouse at 260.935 mg/kg, ip measured after 1 hr by LC-MS/MS analysis. The format is ADME, organism-based. More on the design: dose 260.935 mg/kg, route intraperitoneal. Conditions: 260.94 mg/kg.
The test system of data set [7] is Brain. The data set is described as follows: Antioxidant activity in Sprague-Dawley rat brain homogenate assessed as attenuation of toxin-induced lipid peroxidation at 1 mM by modified TBA assay. It is filed as functional, tissue-based.
For data set [8], the system named is Blood. Nature of the data set: Drug level in C57BL/6 mouse blood assessed as ibuprofen at 246.883 mg/kg, ip measured after 1 hr by LC-MS/MS analysis. Conditions: in vivo, 246.88 mg/kg. The format is ADME, organism-based. Further details: dose 246.883 mg/kg, route intraperitoneal.
Data set [9] concerns Brain. The data set is described as follows: Drug level in C57BL/6 mouse brain assessed as ibuprofen at 246.883 mg/kg, ip measured after 1 hr by LC-MS/MS analysis. Further details: dose 246.883 mg/kg, route intraperitoneal. It is filed as ADME, organism-based. The conditions noted are these: in vivo, 246.88 mg/kg.
Data set [10] can be described thus: Ratio of drug level in brain to blood assessed as ibuprofen in C57BL/6 mouse at 246.883 mg/kg, ip measured after 1 hr by LC-MS/MS analysis. The conditions noted are these: 246.88 mg/kg. More on the design: dose 246.883 mg/kg, route intraperitoneal. It is filed as ADME, organism-based.
For data set [11], the system named is Blood. The data set is described as follows: Drug level in C57BL/6 mouse blood assessed as acetylsalicylic acid at 327.58 mg/kg, ip measured after 1 hr by LC-MS/MS analysis. The format is ADME, organism-based. More on the design: dose 327.58 mg/kg, route intraperitoneal. Conditions: in vivo.
In data set [12] the test system is Brain. Nature of the data set: Drug level in C57BL/6 mouse brain assessed as acetylsalicylic acid at 327.58 mg/kg, ip measured after 1 hr by LC-MS/MS analysis. It is filed as ADME, organism-based. More on the design: dose 327.58 mg/kg, route intraperitoneal. The conditions noted are these: in vivo.
A short description of data set [13]: Ratio of drug level in brain to blood assessed as acetylsalicylic acid in C57BL/6 mouse at 327.58 mg/kg, ip measured after 1 hr by LC-MS/MS analysis. The format is ADME, organism-based. Further details: dose 327.58 mg/kg, route intraperitoneal.
The test system of data set [14] is Blood. Nature of the data set: Drug level in C57BL/6 mouse blood assessed as ibuprofen at 305.08 mg/kg, ip measured after 1 hr by LC-MS/MS analysis. The format is ADME, organism-based. More on the design: dose 305.08 mg/kg, route intraperitoneal. The conditions noted are these: in vivo.
For data set [15], the system named is Brain. Nature of the data set: Drug level in C57BL/6 mouse brain assessed as ibuprofen at 305.08 mg/kg, ip measured after 1 hr by LC-MS/MS analysis. The format is ADME, organism-based. Further details: dose 305.08 mg/kg, route intraperitoneal. The conditions noted are these: in vivo.
Data set [16] is described as follows: Ratio of drug level in brain to blood assessed as ibuprofen in C57BL/6 mouse at 305.08 mg/kg, ip measured after 1 hr by LC-MS/MS analysis. Further details: dose 305.08 mg/kg, route intraperitoneal. It is filed as ADME, organism-based.
The test system of data set [17] is Brain. Nature of the data set: Drug level in C57BL/6 mouse brain assessed as salicylic acid at 150 mg/kg, ip measured after 1 hr by LC-MS/MS analysis. The format is ADME, organism-based. More on the design: dose 150 mg/kg, route intraperitoneal. The conditions noted are these: in vivo.
A short description of data set [18]: Ratio of drug level in brain to blood assessed as salicylic acid in C57BL/6 mouse at 150 mg/kg, ip measured after 1 hr by LC-MS/MS analysis. Further details: dose 150 mg/kg, route intraperitoneal. The format is ADME, organism-based.
For data set [19], the system named is Blood. Nature of the data set: Drug level in C57BL/6 mouse blood assessed as total salicylate at 150 mg/kg, ip measured after 1 hr by LC-MS/MS analysis. It is filed as ADME, organism-based. Further details: dose 150 mg/kg, route intraperitoneal. Conditions: in vivo.
Data set [20] has as its system Brain. The data set is described as follows: Drug level in C57BL/6 mouse brain assessed as total salicylate at 150 mg/kg, ip measured after 1 hr by LC-MS/MS analysis. It is filed as ADME, organism-based. Further details: dose 150 mg/kg, route intraperitoneal. The conditions noted are these: in vivo.
Data set [21] can be described thus: Ratio of drug level in brain to blood assessed as total salicylate in C57BL/6 mouse at 150 mg/kg, ip measured after 1 hr by LC-MS/MS analysis. It is filed as ADME, organism-based. More on the design: dose 150 mg/kg, route intraperitoneal.
The nature of data set [22]: Drug level in C57BL/6 mouse blood at 150 mg/kg, ip measured after 1 hr by LC-MS/MS analysis. It is filed as ADME, organism-based. More on the design: dose 150 mg/kg, route intraperitoneal. Conditions: read-out: Drug uptake.
The nature of data set [23]: Drug level in C57BL/6 mouse brain at 150 mg/kg, ip measured after 1 hr by LC-MS/MS analysis. The format is ADME, organism-based. More on the design: dose 150 mg/kg, route intraperitoneal. Conditions: read-out: Drug uptake.
Data set [24] is described as follows: Ratio of drug level in brain to blood in C57BL/6 mouse at 150 mg/kg, ip measured after 1 hr by LC-MS/MS analysis. The format is ADME, organism-based. More on the design: dose 150 mg/kg, route intraperitoneal.
The subject of data set [25] is Blood. Nature of the data set: Drug level in C57BL/6 mouse blood assessed as salicylic acid at 150 mg/kg, ip measured after 1 hr by LC-MS/MS analysis. It is filed as ADME, organism-based. More on the design: dose 150 mg/kg, route intraperitoneal. Conditions: in vivo.

Consider `CC(=O)Oc1ccccc1C(=O)NC12CC3CC(CC(C3)C1)C2`, for which the concentration at 1 h in [1] was found to be 17.4 ng/mL; in data set [2] it was 8.58 ng/mL. Also, the Kp – broadly, the ratio of the level in a tissue or fluid to that in plasma or blood – at 1 h in data set [3] came to 0.49. In addition, the Drug uptake worked out at 13.84 ng/mL in the data set on Blood [4] and 6.81 ng/mL in the data set with Brain [5]. Further, the Ratio in data set [6] turned out to be 0.49. Further, the result in the data set with Brain [7] was Active.

For the compound `CC(C)Cc1ccc(C(C)C(=O)O)cc1` (stereo not drawn) [IBUPROFEN], the concentration at 1 h in [1] stood at 61.4 ng/mL; in [2], 52.5 ng/mL. Further, the Kp at 1 h in [3] was 0.9. Also, in the data set on Brain [7], the outcome was Active.

Turning to `CC(C)Cc1ccc(C(C)C(=O)NC23CC4CC(CC(C4)C2)C3)cc1` (stereo not drawn), the Drug uptake came to 30.45 ng/mL in the data set on Blood [8] and 11.83 ng/mL with Brain [9]. Besides, the Ratio in data set [10] amounted to 0.39. Further, the result with Brain [7] was Active.

For the compound `CC(=O)Oc1ccccc1C(=O)OC12C3C4CC5C6C4C1C6C1(OCCCN12)C53` (stereo not drawn), the Drug uptake was 44.11 ng/mL with Blood [11] and 59.03 ng/mL in the data set on Brain [12]. The Ratio in [13] is given as 1.34. For the same compound, the outcome in the data set on Brain [7] was Active.

As to `CC(C)Cc1ccc(C(C)C(=O)OC23C4C5CC6C7C5C2C7C2(OCCCN23)C64)cc1` (stereo not drawn), the values for the Drug uptake in the data set with Blood [14] and with Brain [15] were 40.28 ng/mL and 55.8 ng/mL, respectively. In addition, the Ratio in [16] was 1.39. Also, the outcome with Brain [7] was Active.

Take `CC(=O)Oc1ccccc1C(=O)O` [ASPIRIN]: the Drug uptake in the data set on Brain [17] is 7.37 ng/mL; with Blood [19], 41.45 ng/mL; with Brain [20] it was 24.6 ng/mL; in the data set on Blood [25], 6.95 ng/mL. The Ratio in data set [18] came to 1.06; in data set [21], 0.59. Further, the result in the data set on Brain [7] was Active. Moreover, the concentration at 1 h turned out to be 45.5 ng/mL in data set [22] and 22.5 ng/mL in [23]. The Kp at 1 h in [24] amounted to 0.49.

The values are drawn from ChEMBL document CHEMBL1158397, “Polycyclic cage structures as carrier molecules for neuroprotective non-steroidal anti-inflammatory drugs” (Eur J Med Chem, 2009).
